Patent US9187455B2, “Substituted pyridazines as PDE10A inhibitors” (Hoffmann-La Roche Inc., priority 2009, dated 2015)

Tests used:
rats = conditions: sub-chronic treatment with PCP, Rodefer et al. 2005; cited from earlier work
PDE10A2 = molecular target: T1, PDE10A2 (Homo sapiens, UniProt Q9Y233); assay: PDE10A2 Scintillation Proximity Assay (SPA), [3H]-cGMP hydrolysis; type: biochemical; conditions: catalytic domain of human PDE10A2 (S449-D789), 0.25 nM enzyme, 50 nM cGMP + 50 nM [3H]-cGMP, 30 minutes at room temperature; read-out: PDE10A2 inhibition IC50
T1 construct: residues serine 449 to aspartate 789; His6 (H6) with Gateway linker and thrombin cleavage site (N, cleaved yes); made in house; host or cells: E. coli BL21(DE3) pLysS
T1 sequence (Q9Y233 715-1055): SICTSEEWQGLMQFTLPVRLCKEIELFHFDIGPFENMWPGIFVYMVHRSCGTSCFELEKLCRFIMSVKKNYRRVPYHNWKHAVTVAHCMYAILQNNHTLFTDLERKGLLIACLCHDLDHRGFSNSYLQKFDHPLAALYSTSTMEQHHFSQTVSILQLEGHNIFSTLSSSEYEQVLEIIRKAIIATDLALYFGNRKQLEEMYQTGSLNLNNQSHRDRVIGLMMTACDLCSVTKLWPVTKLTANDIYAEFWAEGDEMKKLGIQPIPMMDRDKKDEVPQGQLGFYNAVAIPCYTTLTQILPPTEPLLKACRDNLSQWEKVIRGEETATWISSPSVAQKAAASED
Outline: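 Recombinant human PDE10A2 catalytic domain (S449–D789, E. coli-expressed), 0.25 nM, with 50 nM cGMP plus 50 nM [3H]-cGMP in 20 mM HEPES/10 mM MgCl2, pH 7.5, 30 min at room temperature. Stopped with YSi-SPA beads in zinc sulphate; counts over a compound concentration range gave IC50.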

Structure (SMILES) | effect on deficits in extra-dimensional shift learning (rats) | IC50 (PDE10A2) [nM]
COc1ccc(Cc2nccc3cc(OC)c(OC)cc23)cc1OC [papaverine, Papaverine] | attenuate the deficits in the extra-dimensional shift learning | 
O=c1ccn(-c2ccnc(N3CCOCC3)c2)nc1-c1ccnn1-c1ccc2c(c1)OCCO2 [Example 41, 3-[2-(2,3-Dihydro-benzo[1,4]dioxin-6-yl)-2H-pyrazol-3-yl]-1-(2-morpholin-4-yl-pyridin-4-yl)-1H-pyridazin-4-one] |  | 82
CS(=O)(=O)c1cc(-n2ccc(=O)c(-c3ccnn3-c3ccc4c(c3)OCCO4)n2)ccn1 [Example 17, 3-[2-(2,3-Dihydro-benzo[1,4]dioxin-6-yl)-2H-pyrazol-3-yl]-1-(2-methanesulfonyl-pyridin-4-yl)-1H-pyridazin-4-one] |  | 96
O=c1ccn(-c2ccncc2)nc1-c1ccnn1-c1ccnc2cc(Cl)ccc12 [Example 91, 3-[2-(7-Chloro-quinolin-4-yl)-2H-pyrazol-3-yl]-1-pyridin-4-yl-1H-pyridazin-4-one] |  | 32
